In paper PMC13144739, “Global analysis of cancer cell responses to USP9X inhibition” (The EMBO Journal, 2026):

Tests used:
[1] = target: T1, USP9X catalytic domain (Homo sapiens, UniProt Q93008); test: Ub-Rho cleavage assay; type: biochemical; conditions: Ub-Rho cleavage, recombinant USP9X catalytic domain (WT)
T1 construct: His/SUMO (pOPIN-S vector) (N, cleaved yes); made in house; host or cells: E. coli BL21
T1 sequence (Q93008 1551-1970): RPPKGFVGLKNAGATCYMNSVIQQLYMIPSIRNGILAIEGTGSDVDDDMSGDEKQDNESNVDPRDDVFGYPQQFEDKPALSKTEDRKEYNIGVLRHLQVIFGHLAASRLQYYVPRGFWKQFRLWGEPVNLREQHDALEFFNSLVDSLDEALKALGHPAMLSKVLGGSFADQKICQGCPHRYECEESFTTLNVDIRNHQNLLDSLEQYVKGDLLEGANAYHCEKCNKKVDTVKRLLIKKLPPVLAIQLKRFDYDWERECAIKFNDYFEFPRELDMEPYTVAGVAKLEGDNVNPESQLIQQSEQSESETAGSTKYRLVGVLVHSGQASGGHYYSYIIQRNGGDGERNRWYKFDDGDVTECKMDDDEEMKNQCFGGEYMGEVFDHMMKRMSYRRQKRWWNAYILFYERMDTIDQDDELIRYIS
Experimental: The reaction was stopped through the addition of 10 mM citric acid. The assay was performed in 384-well format with a total reaction volume of 16 µL. Data was collected using the ClarioSTAR plate reader (BMG Labtech) at an emission of 535 nm. […] IC50 values presented in our study are the mean of three independent biological repeats unless indicated otherwise.

[2] = target: T1, USP9X catalytic domain; test: SPR binding assay
Experimental: Next, the sample was desalted using PD midiTrap™ G-25 (GE Healthcare) columns following the manufacturer’s instructions and was further purified by SEC, concentrated, and stored at -80 °C. Enzyme activity was tested in a ubiquitin-probe assay. SPR experiments were performed on a Biacore 8 K+ instrument (Cytiva). USP9X catalytic domain with a C-terminal AviTag™ was immobilised in 10 mM HEPES, 150 mM NaCl at pH 7.4 on a Series S Sensor Chip SA (Cytiva) by coupling. […] Running buffer was supplemented with 2% (v/v) DMSO. Multi-cycle kinetics were performed with 120 s associations and 600 s dissociations at 30 µL/min with no further regeneration. Binding constants were determined in Biacore Insight evaluation software (v5.0.18) at steady state, taking the median response over a 5-s window beginning at 10 s before the end of the association phase. Final KD values are the mean of three independent experiments.

[3] = target: T1, USP9X catalytic domain; test: K48-linked di-ubiquitin cleavage assay; type: biochemical; conditions: reported USP9X inhibitors; Appendix Fig. S1B,E (diUb cleavage 150 µM, Ub-Rho)
Experimental: For inhibitor activity assays, USP9X catalytic domain (di-ubiquitin cleavage assay: 750 nM, ubiquitin-probe assays: 2.5 µM) was pre-incubated with USP9X inhibitors for 30 min at ambient temperature and subsequently mixed with di-ubiquitin (final concentration 2 µM) in assay buffer (25 mM Tris [pH 8.0], 150 mM NaCl, 10 mM DTT) at pH 8.0 or was mixed with ubiquitin-propargylamide (Ub-PA)/ubiquitin-vinyl sulfonate (Ub-VS) probes at a final concentration of 10 µM in assay buffer. For both assays, the mixture was incubated over a time course, and the reaction was stopped by mixing samples with 2× LDS sample buffer (Invitrogen) supplemented with 3% (v/v) 2-mercaptoethanol. All protein samples were run on a 4–12% Bis-Tris SDS-PAGE gradient gel (Invitrogen) for 60 min at 140 V. The gel was stained with InstantBlue® (Abcam) and imaged.

[4] = system: human dermal fibroblasts (HDF); test: IncuCyte live-cell imaging cell death, HDF; type: cell-based; conditions: 50 µM (Appendix Fig. S4E)
Experimental: Cells were seeded at varying densities (1000–8000 cells per well) after initial optimisation in a 96-well tissue culture-treated plate (Thermo Fisher Scientific). Cells were incubated o/n, and the next day, inhibitors and controls diluted in cell media were added to the cells to a final volume of 200 μL per well. Cell death was measured using PI (Sigma-Aldrich). Cells were imaged with four images per well every 2 h for up to 96 h using the IncuCyte live-cell analysis system (S3, Sartorius). Cell proliferation data were analysed using Microsoft Excel by normalising confluence to control conditions. For cell killing readouts, the number of PI-positive cells was normalised to the control conditions for each timepoint.

IC50 [1]	Kd ([2]; SPR, steady state, mean of three repeats, read-out: KD (steady state affinity))	SPR kinetic fitting (on-rate/off-rate) ([2]; compared with the WEHI compound series / WEHI-092)	Structure (SMILES)	effects on the purified USP9X catalytic domain [3]	toxicity to HDFs [4]
4.3 µM	3.51 ± 0.58 µM	much faster off-rate	O=C(c1ccc2[nH]ccc2c1)N1CCN(S(=O)(=O)c2ccc3c(c2)OCCO3)CC1 [WEHI-680]		
			CCC[C@H](NC(=O)/C(C#N)=C/c1cccc(Br)n1)c1ccccc1 [WP1130]	no or weak effects	cytotoxic
			CCCC(NC(=O)/C(C#N)=C/c1nc(Cl)ccc1Cl)c1ccc(OCCN2CCOCC2)cc1 (centres unmarked) [EOAI3402143]	no or weak effects	cytotoxic
> 100 µM			O=S(=O)(c1ccc2c(c1)OCCO2)N1CCN(c2ccc(-c3ccccc3)nn2)CC1 [WEHI-871]		
